Results on three compounds are retold here after publication PMC6155272, “Chroman-4-One Derivatives Targeting Pteridine Reductase 1 and Showing Anti-Parasitic Activity” (Molecules : A Journal of Synthetic Chemistry and Natural …, 2017).

Structures are written as SMILES. Some results are limits rather than exact numbers.

In the series the target is T1, hERG channel (Homo sapiens, UniProt Q12809).
T1 construct: purchased Invitrogen
The experiment in a line: hERG fluorescence polarisation assay (Predictor). The note with it: for inhibition at 10 µM: human. The format is binding. From the text: The assay made use of Invitrogen’s Predictor™ hERG Fluorescence Polarisation Assay. This uses a membrane fraction containing hERG channel (Predictor™ hERG Membrane) and a high-affinity red fluorescent hERG channel ligand, or “tracer” (Predictor™ hERG Tracer Red), whose displacement by test compounds can be determined in a homogenous, Fluorescence Polarisation (FP)-based format.

T1 sequence (Q12809 whole entry): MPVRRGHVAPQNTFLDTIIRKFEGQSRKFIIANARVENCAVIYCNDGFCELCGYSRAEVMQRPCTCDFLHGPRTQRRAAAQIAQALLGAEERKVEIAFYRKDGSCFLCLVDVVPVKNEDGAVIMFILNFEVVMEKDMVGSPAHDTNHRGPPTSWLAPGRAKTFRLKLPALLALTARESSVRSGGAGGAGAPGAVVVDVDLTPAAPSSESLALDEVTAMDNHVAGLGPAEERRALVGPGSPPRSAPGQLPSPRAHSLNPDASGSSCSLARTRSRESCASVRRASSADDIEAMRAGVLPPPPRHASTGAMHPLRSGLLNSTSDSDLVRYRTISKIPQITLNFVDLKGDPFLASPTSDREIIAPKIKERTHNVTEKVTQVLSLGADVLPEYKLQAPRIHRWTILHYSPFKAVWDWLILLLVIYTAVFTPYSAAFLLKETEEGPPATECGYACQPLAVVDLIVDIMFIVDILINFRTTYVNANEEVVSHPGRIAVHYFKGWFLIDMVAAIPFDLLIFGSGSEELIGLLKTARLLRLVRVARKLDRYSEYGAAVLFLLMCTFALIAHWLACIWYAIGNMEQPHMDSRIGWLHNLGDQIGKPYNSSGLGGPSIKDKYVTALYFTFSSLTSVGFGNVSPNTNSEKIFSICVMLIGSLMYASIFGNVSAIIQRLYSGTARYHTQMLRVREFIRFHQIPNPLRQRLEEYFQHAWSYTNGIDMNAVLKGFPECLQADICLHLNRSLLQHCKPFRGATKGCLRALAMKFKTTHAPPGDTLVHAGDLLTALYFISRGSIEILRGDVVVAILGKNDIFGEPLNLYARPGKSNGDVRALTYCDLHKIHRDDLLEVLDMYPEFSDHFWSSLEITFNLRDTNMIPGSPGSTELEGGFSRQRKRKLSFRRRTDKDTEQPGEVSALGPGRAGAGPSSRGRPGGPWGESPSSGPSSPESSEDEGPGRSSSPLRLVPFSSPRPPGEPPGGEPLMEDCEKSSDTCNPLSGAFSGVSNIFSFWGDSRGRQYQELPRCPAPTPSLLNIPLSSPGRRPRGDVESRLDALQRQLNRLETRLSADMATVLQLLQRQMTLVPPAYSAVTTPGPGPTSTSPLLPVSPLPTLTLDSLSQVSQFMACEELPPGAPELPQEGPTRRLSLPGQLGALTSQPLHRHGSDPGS

As for `O=C1CC(c2cccc(O)c2)Oc2ccc(O)cc21` (stereo not drawn) [Compound 1], the concentration for half-maximal inhibition (IC50) (usually the concentration at which inhibition is half-maximal) was above 100 µM and the inhibition (as a rule, the percentage by which the read-out fell short of the control) at 10 µM is 7%.

On to `O=C1CC(c2ccc(O)cc2)Oc2ccc(O)cc21` (stereo not drawn) [Compound 2], for which the IC50 was above 100 µM and the inhibition at 10 µM is 14%.

As to `O=C1CC(c2ccc(O)c(O)c2)Oc2ccc(O)cc21` (stereo not drawn) [Compound 3], the IC50 is 64 µM and the inhibition at 10 µM is 20%.
